Assay results taken from the supplement of paper PMC10883282.

Legend:
Assay in all cases: relative viability vs DMSO control (72 h) (fraction); higher = more viable cells
HT1080 = tested on: HT1080
How it was run: (§1)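 After seeding at densities set for 80–90% confluence in 384-well plates, sarcoma cell lines waited 24 h before 2.5 µl of serially diluted compound was added. Source plates held 10 mM down to 0.0002 mM. Plates were incubated 72 h at 37 °C with 5% CO2, with 0.1% DMSO vehicle and a 5 µM positive control, and relative viability was taken from ATPLite as percent growth averaged over up to triplicate wells, with 1 set as full and 0 as none.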

SW872 = tested on: SW872
How it was run: as §1

SK-LMS-1 = tested on: SK-LMS-1
How it was run: as §1

KHOS-NP = tested on: KHOS-NP
How it was run: as §1

HS729 = tested on: HS729
How it was run: as §1

SK-ES-1 = tested on: SK-ES-1
How it was run: as §1

A204 = tested on: A204
How it was run: as §1

VA-ES-BJ = tested on: VA-ES-BJ
How it was run: as §1

SW684 = tested on: SW684
How it was run: as §1

G401 = tested on: G401
How it was run: as §1

SW982 = tested on: SW982
How it was run: as §1

RD-ES = tested on: RD-ES
How it was run: as §1

Cc1cn(-c2cc(NC(=O)c3ccc(C)c(Nc4nccc(-c5cnccn5)n4)c3)cc(C(F)(F)F)c2)cn1 [Radotinib]
Details	relative viability
A204, 0.00017 µM	1.09
A204, 0.00051 µM	1.11
A204, 0.00152 µM	1.09
A204, 0.00457 µM	1.13
A204, 0.01372 µM	1.14
A204, 0.04115 µM	1.13
A204, 0.1235 µM	1.11
A204, 0.3704 µM	1.07
A204, 1.111 µM	0.836
A204, 3.333 µM	0.629
A204, 10 µM	0.451
G401, 0.00017 µM	1.02
G401, 0.00051 µM	1.06
G401, 0.00152 µM	1.07
G401, 0.00457 µM	1.1
G401, 0.01372 µM	1.12
G401, 0.04115 µM	1.11
G401, 0.1235 µM	1.1
G401, 0.3704 µM	1.08
G401, 1.111 µM	1.04
G401, 3.333 µM	0.984
G401, 10 µM	0.931
HS729, 0.00017 µM	0.995
HS729, 0.00051 µM	1.01
HS729, 0.00152 µM	1.02
HS729, 0.00457 µM	1.03
HS729, 0.01372 µM	0.995
HS729, 0.04115 µM	0.99
HS729, 0.1235 µM	1.02
HS729, 0.3704 µM	1.03
HS729, 1.111 µM	0.995
HS729, 3.333 µM	0.8744
HS729, 10 µM	0.875
HT1080, 0.00017 µM	1.07
HT1080, 0.00051 µM	1.06
HT1080, 0.00152 µM	1.07
HT1080, 0.00457 µM	1.07
HT1080, 0.01372 µM	1.07
HT1080, 0.04115 µM	1.06
HT1080, 0.1235 µM	1.07
HT1080, 0.3704 µM	1.09
HT1080, 1.111 µM	1.03
HT1080, 3.333 µM	1.12
HT1080, 10 µM	1.06
KHOS-NP, 0.00017 µM	1.12
KHOS-NP, 0.00051 µM	1.09
KHOS-NP, 0.00152 µM	1.11
KHOS-NP, 0.00457 µM	1.11
KHOS-NP, 0.01372 µM	1.12
KHOS-NP, 0.04115 µM	1.12
KHOS-NP, 0.1235 µM	1.11
KHOS-NP, 0.3704 µM	1.1
KHOS-NP, 1.111 µM	1.1
KHOS-NP, 3.333 µM	1.09
KHOS-NP, 10 µM	1.07
RD-ES, 0.00017 µM	0.982
RD-ES, 0.00051 µM	1.02
RD-ES, 0.00152 µM	1.01
RD-ES, 0.00457 µM	1.02
RD-ES, 0.01372 µM	1.005
RD-ES, 0.04115 µM	1.01
RD-ES, 0.1235 µM	1.03
RD-ES, 0.3704 µM	1.01
RD-ES, 1.111 µM	1
RD-ES, 3.333 µM	0.991
RD-ES, 10 µM	1.01
SK-ES-1, 0.00017 µM	1.02
SK-ES-1, 0.00051 µM	1.01
SK-ES-1, 0.00152 µM	1.047
SK-ES-1, 0.00457 µM	1.04
SK-ES-1, 0.01372 µM	1.07
SK-ES-1, 0.04115 µM	1.07
SK-ES-1, 0.1235 µM	1.05
SK-ES-1, 0.3704 µM	1.03
SK-ES-1, 1.111 µM	1.02
SK-ES-1, 3.333 µM	1.01
SK-ES-1, 10 µM	1.074
SK-LMS-1, 0.00017 µM	1.05
SK-LMS-1, 0.00051 µM	1.07
SK-LMS-1, 0.00152 µM	1.08
SK-LMS-1, 0.00457 µM	1.05
SK-LMS-1, 0.01372 µM	1.08
SK-LMS-1, 0.04115 µM	1.14
SK-LMS-1, 0.1235 µM	1.14
SK-LMS-1, 0.3704 µM	1.19
SK-LMS-1, 1.111 µM	1.11
SK-LMS-1, 3.333 µM	1.18
SK-LMS-1, 10 µM	1.12
SW684, 0.00017 µM	1.13
SW684, 0.00051 µM	1.17
SW684, 0.00152 µM	1.2
SW684, 0.00457 µM	1.21
SW684, 0.01372 µM	1.17
SW684, 0.04115 µM	1.19
SW684, 0.1235 µM	1.26
SW684, 0.3704 µM	1.33
SW684, 1.111 µM	1.38
SW684, 3.333 µM	1.24
SW684, 10 µM	1.22
SW872, 0.00017 µM	1.06
SW872, 0.00051 µM	1.07
SW872, 0.00152 µM	1.07
SW872, 0.00457 µM	1.07
SW872, 0.01372 µM	1.07
SW872, 0.04115 µM	1.07
SW872, 0.1235 µM	1.08
SW872, 0.3704 µM	1.06
SW872, 1.111 µM	0.98
SW872, 3.333 µM	0.915
SW872, 10 µM	0.889
SW982, 0.00017 µM	1.066
SW982, 0.00051 µM	1.07
SW982, 0.00152 µM	1.08
SW982, 0.00457 µM	1.07
SW982, 0.01372 µM	1.069
SW982, 0.04115 µM	1.08
SW982, 0.1235 µM	1.1
SW982, 0.3704 µM	1.11
SW982, 1.111 µM	1.11
SW982, 3.333 µM	1.13
SW982, 10 µM	1.12
VA-ES-BJ, 0.00017 µM	1.05
VA-ES-BJ, 0.00051 µM	1.08
VA-ES-BJ, 0.00152 µM	1.05
VA-ES-BJ, 0.00457 µM	1.06
VA-ES-BJ, 0.01372 µM	1.08
VA-ES-BJ, 0.04115 µM	1.05
VA-ES-BJ, 0.1235 µM	1.11
VA-ES-BJ, 0.3704 µM	1.17
VA-ES-BJ, 1.111 µM	1.18
VA-ES-BJ, 3.333 µM	1.21
VA-ES-BJ, 10 µM	1.21
